Each structure is given as a SMILES string. Where a name gives a salt, the structure may show the parent alone. Read-outs that look alike come from different tables or passages of the source.

Holding throughout (assay type): biochemical
Test [1] has as its target T1, 11β-HSD1 (Homo sapiens, UniProt P28845).
T1 construct: gene HSD11B1; stably expressed in HEK-293 cells, cell lysate
As to the kind of experiment: radiolabeled cortisone to cortisol conversion, HEK-293 lysate. The note with it: for 11β-HSD1 activity (% of control): 20 µM, […] cortisone, […] NADPH, […]°C, […] min; for remaining activity at 20 µM: read-out: 11β-HSD1 activity (% of control). The text has this:
radiolabeled cortisone to cortisol conversion, HEK-293 lysate on 11β-HSD1

In test [2] the target is T2, 11β-HSD2 (Homo sapiens, UniProt P80365).
T2 construct: gene HSD11B2; stably expressed in HEK-293 cells, cell lysate
T2 sequence (P80365 1-405): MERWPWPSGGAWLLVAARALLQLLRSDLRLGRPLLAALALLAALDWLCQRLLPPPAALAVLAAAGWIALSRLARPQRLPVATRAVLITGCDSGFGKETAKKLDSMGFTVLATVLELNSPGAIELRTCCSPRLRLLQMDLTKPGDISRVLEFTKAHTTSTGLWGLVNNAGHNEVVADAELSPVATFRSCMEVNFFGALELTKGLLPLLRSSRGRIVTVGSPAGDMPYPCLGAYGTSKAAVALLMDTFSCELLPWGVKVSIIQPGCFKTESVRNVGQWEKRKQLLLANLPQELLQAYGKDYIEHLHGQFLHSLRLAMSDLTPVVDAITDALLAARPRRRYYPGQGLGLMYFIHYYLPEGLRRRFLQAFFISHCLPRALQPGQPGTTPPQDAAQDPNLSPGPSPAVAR
As to the kind of experiment: radiolabeled cortisol to cortisone conversion, HEK-293 lysate. The note with it: for 11β-HSD2 activity (% of control): 20 µM, […] cortisol, […] NAD+, […]°C, […] min.

Test [3] has as its target T1, 11β-HSD1. As to the kind of experiment: radiolabeled cortisone to cortisol conversion, HEK-293 lysate.
The target in test [4] is T2, 11β-HSD2. As to the kind of experiment: radiolabeled cortisol to cortisone conversion, HEK-293 lysate.
Where [5] appears, read: read-out: 11β-HSD2 activity (% of control).

T1 sequence (P28845 whole entry): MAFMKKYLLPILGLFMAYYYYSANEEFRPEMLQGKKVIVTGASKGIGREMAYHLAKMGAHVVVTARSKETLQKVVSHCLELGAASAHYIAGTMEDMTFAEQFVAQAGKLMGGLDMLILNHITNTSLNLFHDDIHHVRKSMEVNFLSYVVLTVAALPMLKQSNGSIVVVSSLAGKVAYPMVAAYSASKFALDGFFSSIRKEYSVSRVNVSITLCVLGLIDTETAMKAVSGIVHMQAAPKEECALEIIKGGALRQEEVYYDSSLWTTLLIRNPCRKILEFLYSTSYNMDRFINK

As for `CCO[Si](CCCSSSSCCC[Si](OCC)(OCC)OCC)(OCC)OCC` [AB110873, bis[3-(triethoxysilyl)propyl] tetrasulfide], on 11β-HSD1 [1], the “11β-HSD1 activity (% of control)” value is 79±3.
For the compound `C[C@]12CC[C@H](O)C[C@H]1CC[C@@H]1[C@@H]2CC[C@]2(C)[C@@H](C3=CC(=O)OC3)CC[C@]12O` [Digitoxigenin], at 11β-HSD2 [2], the “11β-HSD2 activity (% of control)” value came out at 104±4. The “11β-HSD1 activity (% of control)” value on 11β-HSD1 [1] is given as 36±2.
In the case of `CC(C)OC(=O)C(C)(C)Oc1ccc(C(=O)c2ccc(Cl)cc2)cc1` [fenofibrate], the remaining activity at 20 µM at 11β-HSD2 [2] (setting [5]) was determined as 140 ± 40%. This compound yielded a half-inhibitory concentration (IC50) against 11β-HSD1 [3] of 3.8 ± 0.3 µM.
As for `CCO[Si](CCCS)(OCC)OCC` [3-mercaptopropyl triethoxysilane], at 11β-HSD2 [2] (read-out: remaining activity at 20 μM), the remaining activity at 20 µM was determined as 80 ± 7%.
For the compound `CC[C@@H](C(=O)[C@@H](C)[C@@H](O)[C@H](C)CCc1ccc(C)c(O)c1C(=O)O)[C@H]1O[C@](CC)([C@H]2CC[C@](O)(CC)[C@H](C)O2)C[C@@H]1C` [lasalocid], the remaining activity at 20 µM at 11β-HSD1 [1] was found to be 84 ± 3%. Also, 14 ± 3 µM corresponded to half-maximal inhibition against 11β-HSD2 [4] (IC50).
`C[C@@H]1CC[C@@]2(OC1)O[C@H]1C[C@H]3[C@@H]4CC[C@H]5C[C@@H](O)CC[C@]5(C)[C@H]4CC(=O)[C@]3(C)[C@H]1[C@@H]2C` [Hecogenin]: the remaining activity at 20 µM at 11β-HSD2 [2] (setting [5]) amounted to 82 ± 2%; at 11β-HSD1 [1], 49 ± 9%.
`CC[C@H]1CN2CCc3cc(OC)c(OC)cc3[C@@H]2C[C@@H]1C[C@H]1NCCc2cc(O)c(OC)cc21` [(−) Cephaeline dihydrochloride]: at 11β-HSD2 [2], the “11β-HSD2 activity (% of control)” value came out at 74±2. For the same compound, the “11β-HSD1 activity (% of control)” value on 11β-HSD1 [1] stood at 100±2.

Values taken from PMC3464284, “Virtual Screening as a Strategy for the Identification of Xenobiotics Disrupting Corticosteroid Action” (PLoS ONE, 2012).
